Assay results: patent publication US9572783B1, “Use of xanthophylls for the treatment of cancers” (priority 2015, dated 2017)

Legend:
Format in all cases: cell-based
[1] = test system: Human U2OS cell line; assay: U2OS cell number count after astaxanthin treatment; conditions: 100, 200 or 400 μM astaxanthin, 72 hours
Procedure: Human U2OS (ATCC, ATCC® HTB-96™) cell line was grown in DMEM medium supplemented with 10% fetal bovine serum at 37° C. in a humidified atmosphere at 5% CO2.
(§1) Astaxanthin was dissolved in dimethyl sulfoxide (DMSO) at concentration of 20 mM as stock solution.
The U2OS cell line was treated with DMSO or 100, 200 or 400 μM of astaxanthin for 72 hours and cell numbers were counted.

[2] = test system: Human U87MG cell line; assay: U87MG cell number count after astaxanthin treatment; conditions: 100, 200 or 400 μM astaxanthin, 24 hours or 48 hours
Procedure: (§2) Human U87MG (ATCC, ATCC® HTB-14™) cell line was grown in DMEM medium supplemented with 10% fetal bovine serum at 37° C. in a humidified atmosphere at 5% CO2. M059K (ATCC, ATCC® CRL-2365™) and M059J (ATCC, ATCC® CRL-2366™) cell lines were grown in Dulbecco's modified Eagle medium (DMEM)-F12 supplemented with 10% fetal bovine serum at 37° C. in a humidified atmosphere at 5% CO2.
as §1
(§3) The U87MG, M059K, and M059J cell lines were treated with DMSO or 100, 200 or 400 μM of astaxanthin for 24 hours or 48 hours and cell numbers were counted.

[3] = test system: M059K cell line; assay: M059K cell number count after astaxanthin treatment; conditions: 100, 200 or 400 μM astaxanthin, 24 hours or 48 hours
Procedure: as §2, §1, §3

[4] = test system: Mouse adrenocortical Y1 cell line; assay: MTT assay of Y1 cell viability; conditions: Y1 cells, 40 μM astaxanthin, 48 hours
Procedure: (§4) Mouse adrenocortical Y1 cell line (ATCC, ATCC® CCL-79™) was grown in Dulbecco's modified Eagle medium (DMEM)-F12 supplemented with 10% fetal bovine serum at 37° C. in a humidified atmosphere at 5% CO2.
(§5) Astaxanthin (Model NO: ATP-9601A; Yuan Yu Bio-Tech (Taiwan), Co., Ltd) was dissolved in dimethyl sulfoxide (DMSO) at concentration of 20 mM as stock solution.
(§6) The Y1 cells were incubated with DMSO or 40 μM of astaxanthin for 1, 2 or 3 days before analysis.
(§7) Cells were washed with PBS after the treatment, followed by addition of 1 ml MTT (3-(4,5-cimethylthiazol-2-yl)-2,5-diphenyl tetrazolium bromide) solution (2 mg/ml in PBS) in each well. After incubation for 3 hours at 37° C., 2 ml of DMSO was added and cells were incubated in the dark for 30 minutes. Absorbance was measured at the wavelength of 570 nm (OD570).

[5] = test system: Mouse adrenocortical Y1 cell line; assay: Y1 cell number count after astaxanthin treatment (growth curve); conditions: 40 μM astaxanthin, 1, 2 or 3 days of treatment
Procedure: as §4, §5, §6

[6] = test system: Human U87MG cell line; assay: MTT assay of U87MG cell viability; conditions: DMSO or different concentrations of astaxanthin
Procedure: as §7, §2, §1, §3

## CC1=C(/C=C/C(C)=C/C=C/C(C)=C/C=C/C=C(C)/C=C/C=C(C)/C=C/C2=C(C)C(=O)[C@@H](O)CC2(C)C)C(C)(C)C[C@H](O)C1=O [astaxanthin, Astaxanthin]
[1]
  U2OS cell growth (cell number): inhibited U2OS cell growth in a dose-dependent manner
[2]
  U87MG cell growth (cell number): inhibited U87MG cell growth in a dose-dependent and time-dependent manner
[3]
  M059K cell growth (cell number): also inhibited M059K
[4]
  OD570 (MTT, cell viability) compared with DMSO treated group: reduced
[5]
  number of Y1 cells compared with control (DMSO treated) group: reduced
[6]
  viability of U87MG cells (MTT): reduced
